Data published in US20260256792A1, “TREATMENT OF CHRONIC SPONTANEOUS URTICARIA BY ADMINISTERING (R)-2-[3-[4-AMINO-3-(2-FLUORO-4-PHENOXY-PHENYL)PYRAZOLO[3,4-D]PYRIMIDIN-1-YL]PIPERIDINE-1-CARBONYL]-4-METHYL-4-[4-(OXETAN-3-YL)PIPERAZIN-1-YL]PENT-2-ENENITRILE” (priority 2023, published 2026).

System: moderate-to-severe chronic spontaneous urticaria (CSU)
Test: Phase 2 CSU study: itch severity score over 7 days (ISS7)
Assay type: in vivo, human
From the text: The study comprises a 12 week, randomized, double-blind, placebo-controlled, multi-center, dose-ranging efficacy and safety phase, followed by a 40 week open label extension (OLE) phase (see FIG. 1). The study consists of three phases and an optional OLE phase. […] Clinically, CSU is characterized by the spontaneous and recurrent appearance of pruritic hives. The proposed primary endpoints were the UAS7 at Week 12 in EU and EU reference countries and the ISS7 in the US. Regardless of where a participant was from, all assessments were the same. The UAS7 score is a composite score containing both the HSS7 and the ISS7. This allowed a global assessment of the two key components of urticaria: hives and itch. […] The UAS is a validated PRO measure. […] The daily UAS scores range from 0 to 6 point/day. […] Patients were to complete the UAS using the e-diary. […] The following secondary endpoints were to be analyzed using the same approach as for the primary endpoint: • Change from baseline in UAS7 at Week 4 • Change from baseline in UAS7 at Week 12 (for US and US reference countries) • Change from baseline in ISS7 at Week 12 (except US and US reference countries) • Change from baseline in HSS7 at Week 12

[1] = Omalizumab-naïve population, 400 mg BID (N = 35), double-blind period, last week block of Table 28 (week head not shown), WOCF imputation
[2] = Omalizumab-naïve population, 400 mg QPM (N = 37), double-blind period, last week block of Table 28 (week head not shown), WOCF imputation
[3] = Omalizumab-naïve population, 400 mg TID (N = 35), double-blind period, last week block of Table 28 (week head not shown), WOCF imputation
[4] = Patients with prior omalizumab use incl. incomplete responders, 400 mg TID (N = 6), double-blind period, last week block of Table 28 (week head not shown), WOCF imputation
[5] = Week 1, 400 mg BID, Omalizumab-Naïve
[6] = Week 1, 400 mg BID, Prior Omalizumab Use
[7] = Week 1, 400 mg QPM, Omalizumab-Naïve
[8] = Week 1, 400 mg QPM, Prior Omalizumab Use
[9] = Week 1, 400 mg TID, Omalizumab-Naïve
[10] = Week 1, 400 mg TID, Prior Omalizumab Use
[11] = Week 2, 400 mg BID, Omalizumab-Naïve

CC(C)(C=C(C#N)C(=O)N1CCC[C@@H](n2nc(-c3ccc(Oc4ccccc4)cc3F)c3c(N)ncnc32)C1)N1CCN(C2COC2)CC1 [rilzabrutinib, (R)-2-[3-[4-amino-3-(2-fluoro-4-phenoxy-phenyl)pyrazolo[3,4-d]pyrimidin-1-yl]piperidine-1-carbonyl]-4-methyl-4-[4-(oxetan-3-yl)piperazin-1-yl]pent-2-enenitrile]
ISS7 Post-baseline Mean (SD) (Omalizumab-Naïve, 400 mg TID, Week 5): 6.92 (5.87) | ISS7 Post-baseline Mean (SD) (Omalizumab-Naïve, 400 mg TID, Week 7): 7.14 (5.35) | ISS7 Post-baseline Mean (SD) (Omalizumab-Naïve, 400 mg TID, Week 8): 7.24 (5.51) | ISS7 Post-baseline Mean (SD) (Omalizumab-Naïve, 400 mg TID, Week 9): 6.68 (5.31) | ISS7 Post-baseline Mean (SD) (Omalizumab-Naïve, 400 mg TID, Week 10): 6.75 (5.25) | ISS7 Post-baseline Mean (SD) (Omalizumab-Naïve, 400 mg TID, Week 11): 6.99 (5.53) | ISS7 Post-baseline Mean (SD) (Omalizumab-Naïve, 400 mg TID, Week 12): 5.77 (5.26) | ISS7 Change from baseline Mean (SD) [1]: −6.60 (7.33) | ISS7 Change from baseline Median [1]: −8.00 | ISS7 Percent change from baseline Mean (SD) [1]: −46.22 (56.25) % | ISS7 Percent change from baseline Median [1]: −53.33% | ISS7 change from baseline, Max [1]: 2.0 | ISS7 change from baseline, Min [1]: −14.0 | ISS7 change from baseline, Q1 [1]: −13.00 | ISS7 change from baseline, Q3 [1]: 0.00 | ISS7 percent change from baseline, Max [1]: 22.2% | ISS7 percent change from baseline, Min [1]: −100.0% | ISS7 percent change from baseline, Q1 [1]: −100.00% | ISS7 percent change from baseline, Q3 [1]: 0.00% | ISS7 Change from baseline Mean (SD) [2]: −11.40 (8.46) | ISS7 Change from baseline Median [2]: −14.00 | ISS7 Percent change from baseline Mean (SD) [2]: −66.19 (45.96) % | ISS7 Percent change from baseline Median [2]: −83.33% | ISS7 change from baseline, Max [2]: 0.0 | ISS7 change from baseline, Min [2]: −20.0 | ISS7 change from baseline, Q1 [2]: −19.00 | ISS7 change from baseline, Q3 [2]: 0.00 | ISS7 percent change from baseline, Max [2]: 0.0% | ISS7 percent change from baseline, Min [2]: −100.0% | ISS7 percent change from baseline, Q1 [2]: −100.00% | ISS7 percent change from baseline, Q3 [2]: 0.00% | ISS7 Change from baseline Mean (SD) [3]: −6.20 (3.70) | ISS7 Change from baseline Median [3]: −7.00 | ISS7 Percent change from baseline Mean (SD) [3]: −38.05 (24.78) % | ISS7 Percent change from baseline Median [3]: −47.37% | ISS7 change from baseline, Max [3]: 0.0 | ISS7 change from baseline, Q1 [3]: −9.00 | ISS7 change from baseline, Q3 [3]: −6.00 | ISS7 percent change from baseline, Max [3]: 0.0% | ISS7 percent change from baseline, Min [3]: −64.3% | ISS7 percent change from baseline, Q1 [3]: −50.00% | ISS7 percent change from baseline, Q3 [3]: −28.57% | ISS7 Change from baseline Mean (SD) [4]: −1.50 (2.12) | ISS7 Change from baseline Median [4]: −1.50 | ISS7 Percent change from baseline Mean (SD) [4]: −18.75 (26.52) % | ISS7 Percent change from baseline Median [4]: −18.75% | ISS7 change from baseline, Max [4]: 0.0 | ISS7 change from baseline, Min [4]: −3.0 | ISS7 change from baseline, Q1 [4]: −3.00 | ISS7 change from baseline, Q3 [4]: 0.00 | ISS7 percent change from baseline, Max [4]: 0.0% | ISS7 percent change from baseline, Min [4]: −37.5% | ISS7 percent change from baseline, Q1 [4]: −37.50% | ISS7 percent change from baseline, Q3 [4]: 0.00% | ISS7 Change from baseline Mean (SD) [5]: −4.94 (4.65) | ISS7 Change from baseline Median [5]: −4.00 | ISS7 Median [5]: 12.00 | ISS7 Percent change from baseline Mean (SD) [5]: −33.91 (34.62) % | ISS7 Percent change from baseline Median [5]: −25.00% | ISS7 Change from baseline Mean (SD) [6]: −6.33 (5.82) | ISS7 Change from baseline Median [6]: −4.50 | ISS7 Median [6]: 13.00 | ISS7 Percent change from baseline Mean (SD) [6]: −35.93 (34.83) % | ISS7 Percent change from baseline Median [6]: −23.02% | ISS7 Change from baseline Mean (SD) [7]: −3.30 (4.93) | ISS7 Change from baseline Median [7]: −3.00 | ISS7 Mean (SD) [7]: 13.08 (4.52) | ISS7 Median [7]: 14.00 | ISS7 Percent change from baseline Mean (SD) [7]: −17.96 (28.66) % | ISS7 Percent change from baseline Median [7]: −19.05% | ISS7 Change from baseline Mean (SD) [8]: −8.00 (NC) | ISS7 Change from baseline Median [8]: −8.00 | ISS7 Mean (SD) [8]: 13.00 (NC) | ISS7 Median [8]: 13.00 | ISS7 Percent change from baseline Mean (SD) [8]: −38.10 (NC) % | ISS7 Percent change from baseline Median [8]: −38.10% | ISS7 Change from baseline Mean (SD) [9]: −6.17 (5.49) | ISS7 Change from baseline Median [9]: −5.00 | ISS7 Mean (SD) [9]: 9.51 (5.64) | ISS7 Median [9]: 9.00 | ISS7 Percent change from baseline Mean (SD) [9]: −38.58 (33.51) % | ISS7 Percent change from baseline Median [9]: −31.37% | ISS7 Change from baseline Mean (SD) [10]: −9.67 (5.32) | ISS7 Change from baseline Median [10]: −9.00 | ISS7 Mean (SD) [10]: 7.33 (5.43) | ISS7 Median [10]: 7.00 | ISS7 Percent change from baseline Mean (SD) [10]: −58.16 (26.72) % | ISS7 Percent change from baseline Median [10]: −66.07% | ISS7 Change from baseline Mean (SD) [11]: −5.00 (4.40) | ISS7 Change from baseline Median [11]: −5.00 | ISS7 Mean (SD) [11]: 10.32 (5.64)
